The structures appear in SMILES notation.

Data on 39 molecules can be found in patent US9499535B2, “Kinase inhibitors” (ORIGENIS GMBH, priority 2011, dated 2016).

The experiment deals with T1, SYK kinase (Homo sapiens, UniProt P43405).
T1 construct: purchased Invitrogen, Carlsbad
As to the kind of experiment: SYK assay (OMNIA Kinase Assay, Invitrogen). The format is biochemical. Particulars: apparent Ki calculated from the IC50 using the Cheng-Prusoff equation; 1 mM ATP, 10 μM Peptide Substrate; read-out: SYK Activities: Ki. On the procedure:
In the assay OMNIA® KINASE ASSAY by Invitrogen Corporation (Carlsbad) the effect of invention of a compound on the phosphorylation is determined by measurement of fluorescence intensity of a chelation-enhanced fluorophore called SOX. Upon phosphorylation of the peptide by the kinase of interest, Mg2+ is chelated to form a bridge between the SOX moiety and the phosphate group that is transferred to the specific tyrosine on the peptide. The fluorescence intensity is directly proportional to the amount of peptide phosphorylation.
To the wells of an 384 well small volume plate (Greiner, Frickenhausen) are added (i) the compound under test in 5% DMSO/distilled water (2 μl), (ii) 16 μl of the master mix containing ATP, DTT, Kinase Reaction Buffer, Omina Peptide Substrate Tyr 7 resulting in a final concentration of 1 mM ATP, 0.2 mM DTT and 10 μM Peptide Substrate.
The Master Mix and the assay plate was incubated to reaction temperature before the measurement (30° C.). The reaction was started with addition of (iii) 2 μl 4 μg/ml SYK kinase (Invitrogen, Carlsbad). During measurement fluorescence intensitiy readings were collected using a TECAN M1000 at a wavelength of λex 360/λem 485 nm every 30 s for 30 minutes. The reaction velocity was plotted versus the inhibitor concentration to determine the IC50 using XLFit 5.0 (IDBS, Guildford) to fit to a sigmoidal dose response curve, and the apparent Ki values were calculated from the IC50 using the Cheng-Prusoff equation (Cheng, Y.; Prusoff, W. H. Biochem. Pharmacol. 22, 3099-3108, 1973).

Consider `FC(F)(F)c1cccc(Nc2nc3ccccc3c3c[nH]nc23)c1` [Example #2, (2H-Pyrazolo[3,4-c]quinolin-4-yl)-(3-trifluoromethyl-phenyl)-amine], for which the Ki is 100 to 1000 nM.

For the molecule `c1ccc2c(c1)nc(Nc1ccc3[nH]ncc3c1)c1n[nH]cc12` [Example #4, (1H-Indazol-5-yl)-(2H-pyrazolo[3,4-c]quinolin-4-yl)-amine], the Ki is 100 to 1000 nM.

Take `c1ccc(Nc2nc3ccccc3c3c[nH]nc23)cc1` [Example #5, Phenyl-(2H-pyrazolo[3,4-c]quinolin-4-yl)-amine]: the Ki is 100 to 1000 nM.

For `c1ccc2c(c1)nc(Nc1ccc3cn[nH]c3c1)c1n[nH]cc12` [Example #6, (1H-Indazol-6-yl)-(2H-pyrazolo[3,4-c]quinolin-4-yl)-amine], the Ki is 10 to 100 nM.

As to `Cc1cc(Nc2nc3ccccc3c3c[nH]nc23)cc2cn[nH]c12` [Example #8, (7-Methyl-1H-indazol-5-yl)-(2H-pyrazolo[3,4-c]quinolin-4-yl)-amine], the Ki was 100 to 1000 nM.

As for `COc1ccc2nc(Nc3cc(C)c4[nH]ncc4c3)c3n[nH]cc3c2c1` [Example #10, (8-Methoxy-2H-pyrazolo[3,4-c]quinolin-4-yl)-(7-methyl-1H-indazol-5-yl)-amine], the Ki is 10 to 100 nM.

Turning to `c1ccc2c(c1)nc(Nc1ccc3[nH]cnc3c1)c1n[nH]cc12` [Example #17, (1H-Benzoimidazol-5-yl)-(2H-pyrazolo[3,4-c]quinolin-4-yl)-amine], the Ki was 100 to 1000 nM.

Regarding `c1ccc2c(c1)nc(Nc1ccc3c(c1)OCO3)c1n[nH]cc12` [Example #22, Benzo[1,3]dioxol-5-yl-(2H-pyrazolo[3,4-c]quinolin-4-yl)-amine], the Ki was 100 to 1000 nM.

As to `c1cncc(Nc2nc3ccccc3c3cn[nH]c23)c1` [Example #23, (3H-Pyrazolo[3,4-c]quinolin-4-yl)-pyridin-3-yl-amine], the Ki was 100 to 1000 nM.

Take `Cn1ncc2ccc(Nc3nc4ccccc4c4c[nH]nc34)cc21` [Example #24, (1-Methyl-1H-indazol-6-yl)-(2H-pyrazolo[3,4-c]quinolin-4-yl)-amine]: the Ki is 100 to 1000 nM.

Consider `COc1ccc(Nc2nc3ccccc3c3c[nH]nc23)cn1` [Example #25, (6-Methoxy-pyridin-3-yl)-(2H-pyrazolo[3,4-c]quinolin-4-yl)-amine], for which the Ki was 100 to 1000 nM.

Take `CN1CCN(c2ccc(Nc3nc4ccccc4c4c[nH]nc34)cc2)CC1` [Example #26, [4-(4-Methyl-piperazin-1-yl)-phenyl]-(2H-pyrazolo[3,4-c]quinolin-4-yl)-amine]: the Ki was 100 to 1000 nM.

Consider `CN1CCCN(c2ccc(Nc3nc4ccccc4c4c[nH]nc34)cc2)CC1` [Example #27, [4-(4-Methyl-[1,4]diazepan-1-yl)-phenyl]-(2H-pyrazolo[3,4-c]quinolin-4-yl)-amine], for which the Ki is 100 to 1000 nM.

As to `c1ccc(Nc2nc3ccccc3c3cn[nH]c23)nc1` [Example #28, (3H-Pyrazolo[3,4-c]quinolin-4-yl)-pyridin-2-yl-amine], the Ki was 100 to 1000 nM.

Take `c1ccc2cc(Nc3nc4ccccc4c4cn[nH]c34)ncc2c1` [Example #30, Isoquinolin-3-yl-(3H-pyrazolo[3,4-c]quinolin-4-yl)-amine]: the Ki was 100 to 1000 nM.

For `Cn1ncc2ccc(Nc3nc4ccc(Br)cc4c4c[nH]nc34)cc21` [Example #35, (8-Bromo-2H-pyrazolo[3,4-c]quinolin-4-yl)-(1-methyl-1H-indazol-6-yl)-amine], the Ki is 100 to 1000 nM.

Turning to `COc1cccc(Nc2nc3ccc(OC)cc3c3c[nH]nc23)c1` [Example #60, (3-Methoxy-phenyl)-(8-methoxy-2H-pyrazolo[3,4-c]quinolin-4-yl)-amine], the Ki was 10 to 100 nM.

On to `COc1ccc2nc(Nc3ccc4[nH]ccc4c3)c3[nH]ncc3c2c1` [Example #72, (1H-Indol-5-yl)-(8-methoxy-3H-pyrazolo[3,4-c]quinolin-4-yl)-amine], for which the Ki was 100 to 1000 nM.

`COc1ccc2nc(Nc3ccc4cc[nH]c4c3)c3[nH]ncc3c2c1` [Example #75, (1H-Indol-6-yl)-(8-methoxy-3H-pyrazolo[3,4-c]quinolin-4-yl)-amine]: the Ki is 100 to 1000 nM.

In the case of `COc1ccc2nc(Nc3cccc(N(C)C)c3)c3n[nH]cc3c2c1` [Example #76, N-(8-Methoxy-2H-pyrazolo[3,4-c]quinolin-4-yl)-N′,N′-dimethyl-benzene-1,3-diamine], the Ki is 100 to 1000 nM.

For `COc1ccc2nc(Nc3ccc(N4CCCC4)cc3)c3n[nH]cc3c2c1` [Example #79, (8-Methoxy-2H-pyrazolo[3,4-c]quinolin-4-yl)-(4-pyrrolidin-1-yl-phenyl)-amine], the Ki was 100 to 1000 nM.

For `c1ccc2c(c1)nc(Nc1ccc3[nH]ccc3c1)c1n[nH]cc12` [Example #82, (1H-Indol-5-yl)-(2H-pyrazolo[3,4-c]quinolin-4-yl)-amine], the Ki was 100 to 1000 nM.

Regarding `Brc1ccc2nc(Nc3ccc(N4CCCCC4)cc3)c3n[nH]cc3c2c1` [Example #83, (8-Bromo-2H-pyrazolo[3,4-c]quinolin-4-yl)-(4-piperidin-1-yl-phenyl)-amine], the Ki is 100 to 1000 nM.

In the case of `COc1ccc2nc(Nc3ccc4[nH]ncc4c3)c3n[nH]cc3c2n1` [Example #90, (1H-Indazol-5-yl)-(8-methoxy-2H-2,3,5,9-tetraaza-cyclopenta[a]naphthalen-4-yl)-amine], the Ki is 100 to 1000 nM.

Regarding `c1cc2c(cn1)nc(Nc1ccc3cn[nH]c3c1)c1n[nH]cc12` [Example #91, (1H-Indazol-6-yl)-(2H-2,3,5,7-tetraaza-cyclopenta[a]naphthalen-4-yl)-amine], the Ki was 10 to 100 nM.

`Brc1ccc2nc(Nc3ccc4[nH]ccc4c3)c3n[nH]cc3c2c1` [Example #99, (8-Bromo-2H-pyrazolo[3,4-c]quinolin-4-yl)-(1H-indol-5-yl)-amine]: the Ki is 100 to 1000 nM.

In the case of `COc1ccc2nc(Nc3ccc4c(O)ncnc4c3)c3[nH]ncc3c2c1` [Example #110, 7-(8-Methoxy-3H-pyrazolo[3,4-c]quinolin-4-ylamino)-quinazolin-4-ol], the Ki is 100 to 1000 nM.

Regarding `COc1ccc(Nc2nc3cccnc3c3c[nH]nc23)cc1OC` [Example #123, (3,4-Dimethoxy-phenyl)-(2H-2,3,5,9-tetraaza-cyclopenta[a]naphthalen-4-yl)-amine], the Ki was 10 to 100 nM.

As for `COc1ccc2nc(Nc3nnc(C4CC4)[nH]3)c3n[nH]cc3c2c1` [Example #141, (5-Cyclopropyl-4H-[1,2,4]triazol-3-yl)-(8-methoxy-2H-pyrazolo[3,4-c]quinolin-4-yl)-amine], the Ki is 100 to 1000 nM.

Turning to `COc1ccc2nc(Nc3ccc4c(c3)COCO4)c3n[nH]cc3c2c1` [Example #146, (4H-Benzo[1,3]dioxin-6-yl)-(8-methoxy-2H-pyrazolo[3,4-c]quinolin-4-yl)-amine], the Ki is 100 to 1000 nM.

For `COc1ccc2nc(Nc3cc(C)ccn3)c3n[nH]cc3c2c1` [Example #154, (8-Methoxy-2H-pyrazolo[3,4-c]quinolin-4-yl)-(4-methyl-pyridin-2-yl)-amine], the Ki was 100 to 1000 nM.

On to `COc1ccc2nc(Nc3cc(C)cc(C)n3)c3n[nH]cc3c2c1` [Example #156, (4,6-Dimethyl-pyridin-2-yl)-(8-methoxy-2H-pyrazolo[3,4-c]quinolin-4-yl)-amine], for which the Ki was 100 to 1000 nM.

Turning to `COc1ccc2nc(Nc3nc(C)cs3)c3n[nH]cc3c2c1` [Example #157, (8-Methoxy-2H-pyrazolo[3,4-c]quinolin-4-yl)-(4-methyl-thiazol-2-yl)-amine], the Ki is 100 to 1000 nM.

As to `COc1ccc2nc(Nc3nc4c(s3)CCCC4)c3n[nH]cc3c2c1` [Example #158, (8-Methoxy-2H-pyrazolo[3,4-c]quinolin-4-yl)-(4,5,6,7-tetrahydro-benzothiazol-2-yl)-amine], the Ki was 100 to 1000 nM.

As for `COc1ccc2nc(Nc3ccc(Oc4ccccc4)cc3)c3n[nH]cc3c2c1` [Example #159, (8-Methoxy-2H-pyrazolo[3,4-c]quinolin-4-yl)-(4-phenoxy-phenyl)-amine], the Ki is 10 to 100 nM.

`COc1ccc2c(c1)nc(Nc1ccc(N3CCN(C)CC3)cc1)c1n[nH]cc12` [Example #176, (7-Methoxy-2H-pyrazolo[3,4-c]quinolin-4-yl)-[4-(4-methyl-piperazin-1-yl)-phenyl]-amine]: the Ki was 10 to 100 nM.

As to `COc1ccc2nc(Nc3ccc(N(C)C)c(C)c3)c3n[nH]cc3c2c1` [Example #178, N4-(8-Methoxy-2H-pyrazolo[3,4-c]quinolin-4-yl)-2,N1,N1-trimethyl-benzene-1,4-diamine], the Ki is 10 to 100 nM.

Turning to `COc1ccc2nc(Nc3ccc4c(c3)NC(=O)CN4)c3n[nH]cc3c2c1` [Example #182, 7-(8-Methoxy-2H-pyrazolo[3,4-c]quinolin-4-ylamino)-3,4-dihydro-1H-quinoxalin-2-one], the Ki was 10 to 100 nM.

`COc1ccc2nc(Nc3ccc(Cc4ccccc4)cc3)c3n[nH]cc3c2c1` [Example #190, (4-Benzyl-phenyl)-(8-methoxy-2H-pyrazolo[3,4-c]quinolin-4-yl)-amine]: the Ki is 100 to 1000 nM.
